Laboratory results reported in patent US9962398B2, “Sulfonamide compounds for inhibition of metastatic tumor growth” (Welichem Biotech Inc., priority 2010, dated 2018).
Where two headings read alike, the source gives them in different places.

Tests used:
4T1 cells = assay: Measurement of extracellular pH in hypoxia, 4T1 cells; type: cell-based, mouse; conditions: 72 h, 400 uM MST-017
Experimental: (§1) Changes in solution pH were assessed using procedures published previously (29, 42, 43). In brief, cells were plated at appropriate density (1×10^4 cells/cm2 for 4T1 cells and its transfected derivatives, 2×10^4 cells/cm2 for 66cl4 cells, 1×10^4 cells/cm2 for 67NR cells and its transfected derivatives) in 60 mm dishes and allowed to recover overnight. A standard volume of 3 ml of fresh media/dish was then added and cells were incubated in normoxia (air+5% CO2) or hypoxia (1% O2 and 5% CO2 balanced with nitrogen) for 72 h. Care was taken to ensure that cultures grown in normoxia and hypoxia were at similar confluence and contained similar cell numbers at the time of medium collection. Collected spent media was maintained at 37° C. and pH was measured immediately using a digital pH meter. […] Cells were harvested on ice for qRT-PCR and Western blot analysis.
(§2) Ureido sulfonamides are new.
(§3) Cells were cultured for 72 h in the presence of 10 μM MST-017. Shown in FIG. 9 are representative images of the FITC-tagged inhibitor bound to the cell lines in the indicated conditions. […] For each cell line, changes in the extracellular pH in hypoxia were assessed relative to the baseline extracellular pH measured in parallel cultures grown in normoxia. *P<0.001 with a two-sided Student's t-test, compared to cells cultured without inhibitor.

66cl4 cells = assay: Measurement of extracellular pH in hypoxia, 66cl4 cells; type: cell-based, mouse; conditions: 72 h, 600 uM MST-017
Experimental: as §1, §2
as §3, with “Shown” for “Cells were cultured for 72 h in the presence of 10 μM MST-017. Shown”

4T1 primary tumors = conditions: mouse, in vivo
Experimental: For in vitro studies, the compounds were dissolved in DMSO, stored at −80° C. and diluted into culture medium just prior to application. […] For in vivo studies, the MST-017 inhibitor was administered by i.p. injection (first two doses were administered i.v.) at 75 mg/kg and 150 mg/kg 3× per week for 2 weeks. […] The compounds were solubilized in PEG400/ethanol/saline prior to injection. Vehicle components were held constant as inhibitor concentrations were varied.
(§4) Primary tumor growth rates were calculated from caliper measurements using the modified ellipsoid formula (L×W^2)/2.
Animals were inoculated orthotopically with 4T1 cells. Tumors were allowed to establish for 14 days. Mice were injected with the indicated doses of MST-017 3× per week for 2 weeks. Left panel, tumor growth was monitored by caliper-based measurement. […] Vehicle-treated and untreated animals served as controls. *P<0.02, **P<0.01 using a 2-sided Student's t-test, compared to vehicle controls.
The weights of treated animals were monitored as a measure of general inhibitor toxicity. Mice were weighed just prior to each dose of the CAIX inhibitor.

67NR-derived tumors = conditions: mouse, in vivo
Experimental: For in vivo studies, the MST-017 inhibitor was administered by i.p. injection (first two doses were administered i.v.) at 75 mg/kg and 150 mg/kg 3× per week for 2 weeks. […] The compounds were solubilized in PEG400/ethanol/saline prior to injection. Vehicle components were held constant as inhibitor concentrations were varied.
as §4

4T1 mammary tumor cells = assay: Experimental metastasis assay, intravenous 4T1 cells, bioluminescence; type: in vivo, mouse; conditions: tail vein 4T1 cells, BALB/c mice, daily i.p. for 5 days, imaged 24 h after final dose
Experimental: For studies involving genetic depletion of CAIX, 4T1 or 67NR cells (5×10^5) were injected directly into the tail vein of 7-9 week-old female BALB/c mice. Mice were imaged once per week to follow the growth of metastases. Mice were euthanized 20 days post-injection and lungs were resected for further analysis. Tumor burden in the lung was quantified by manually counting nodules visible on the lung surface. For studies using sulphonamide inhibitors, 4T1 cells (1-5×10^5) were injected as described above (Pacchiano et al, (2011) J Med Chem 54:1896-1902).
Animals were treated 24 hours post inoculation of cells. Three doses were administered by i.p. injection over 6 days and the mice were imaged 24 hours following the third dose of inhibitor. […] Quantification of tumor-derived bioluminescence is shown in 12C. Regions of interest were positioned around metastatic foci and total flux (photons/sec) at the mouse surface was calculated. Data are reported as the mean±s.e.m. N=4 per group. *P<0.05.
4T1 cells were injected directly into the tail vein of BALB/c mice. […] Vehicle and inhibitor were administered by i.p. injection. Shown are representative images of tumor-cell derived bioluminescence in control and inhibitor-treated animals.

MDA-231 LM2-4 Luc+ cells = assay: 3D Matrigel invasion assay in hypoxia; type: cell-based, human; conditions: 4 days in hypoxia
Experimental: A 3D “on-top” matrigel culture assay was performed as described previously (Lee et al, (2007) Nat Methods 4:359-365). […] Cells were allowed to attach for 45 minutes with side-to-side agitation every 10-15 minutes to prevent clumping of cells in the center of the well. An additional 100 μl/well media containing 10% matrigel was added to the cells and cultures were incubated in hypoxia for 4 days. Images were acquired and cultures were fixed for TUNEL using the “whole culture fixation” methodology outlined in Lee et al, (2007) Nat Methods 4:359-365).
Treatment with novel sulfonamide inhibitors of CAIX attenuates hypoxia-induced invasion of human breast cancer cells grown in 3D Matrigel™ cultures (FIG. 16). Cells were cultured in 3D “on-top” Matrigel™ assays for 4 days in hypoxia in the presence of inhibitors. DMSO-treated cell cultures served as controls. The percentage concentration of DMSO and molar concentration of inhibitors are indicated. Representative phase contrast images are shown.

[1] = test system: MDA-MB-231 LM2-4luc+ tumors; assay: ESA+ cancer stem cell population in orthotopic xenograft tumors (FACS); type: in vivo, human; conditions: NOD/SCID mice, 38 mg/kg daily i.p., vs vehicle-treated tumors
Source text: MDA-MB-231 LM2-4^luc+ were implanted orthotopically into NOD/SCID mice. […] (A) Primary tumors were removed, dissociated and ESA+ cell population assessed by FACS analysis. […] (B) Data shown are the mean changes in ESA+ cells±SEM, from 3 mice. **P<0.0224.

[2] = test system: MDA-MB-231 LM2-4Luc+ cells; conditions: in vivo
Source text: For studies involving CAIX depletion, 1×10^7 MDA-MB-231 cells suspended in a 50% Matrigel/PBS solution were implanted subcutaneously in 6-8 week-old female NOD.CB17-prkdc^scid/J mice. […] Therapy was initiated when the tumors reached 200 mm^3. For both models, tumor growth was monitored by caliper measurement.
The initiation and termination of inhibitor treatment is indicated. n=8/group. *P<0.03, **P<0.001.

hCA IX [3] = molecular target: T1, hCA IX (Homo sapiens (Human), UniProt Q16790); assay: biochemical
hCA II = hCA II (Homo sapiens (Human), UniProt P00918); conditions: read-out: Ki (nM) hCA II; Table 3
hCA IX [4] = molecular target: T1, hCA IX; conditions: read-out: Ki (nM) hCA IX; Table 3
hCA XII = hCA XII (Homo sapiens (Human), UniProt O43570); conditions: read-out: Ki (nM) hCA XII; Table 3
hCA XII, sequence (O43570 25-354): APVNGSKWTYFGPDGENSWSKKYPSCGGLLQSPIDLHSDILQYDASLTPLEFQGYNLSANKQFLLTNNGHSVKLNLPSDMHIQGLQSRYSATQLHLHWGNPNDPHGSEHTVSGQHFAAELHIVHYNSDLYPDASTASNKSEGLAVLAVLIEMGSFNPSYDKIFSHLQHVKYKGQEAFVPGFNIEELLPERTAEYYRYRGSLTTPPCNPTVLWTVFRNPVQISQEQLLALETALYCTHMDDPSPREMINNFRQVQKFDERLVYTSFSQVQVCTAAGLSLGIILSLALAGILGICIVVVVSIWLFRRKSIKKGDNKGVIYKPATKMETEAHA

For `NS(=O)(=O)c1ccc(CCNC(=S)Nc2ccc(-c3c4ccc(=O)cc-4oc4cc(O)ccc34)c(C(=O)O)c2)cc1` [MST-017], the “change in extracellular pH” value (4T1 cells) was “reversed acidification of the extracellular medium”, the “change in extracellular pH” value (66cl4 cells) was “reversed acidification of the extracellular medium” and the tumor growth (4T1 primary tumors) was “significant inhibition of tumor growth”. The “weights of treated animals” value (4T1 primary tumors) was “no significant weight reduction”, the tumor growth (67NR-derived tumors) was “no significant effect” and the “weights of treated animals” value (67NR-derived tumors) was “no significant weight reduction”.
With `NS(=O)(=O)c1ccc(NC(=O)Nc2ccc(F)cc2)cc1` [MST-104, 4-{[(4′-Fluorophenyl)carbamoyl]amino}benzenesulfonamide] the “formation of metastases (tumor-derived bioluminescence)” value (4T1 mammary tumor cells) was “statistically significant decrease in the formation of metastases”, the hypoxia-induced invasion (MDA-231 LM2-4 Luc+ cells) was “inhibit invasion” and the “ESA+ cell population” value [1] was “significantly reduced ESA+ cell population”. The tumor growth [2] was “significant, dose-dependent inhibition of tumor growth”.
In the case of `NS(=O)(=O)c1cccc(NC(=O)Nc2c(F)c(F)c(F)c(F)c2F)c1` [MST-133, 3-(3-(Perfluorophenyl)ureido)benzenesulfonamide], the Ki (hCA IX [3]) is reported as 4.2 nM.
Work on `NS(=O)(=O)c1ccc(NC(=O)Nc2cccc(Cl)c2)cc1` [MST-143, 4-(3-(3′-chlorophenyl)ureido)benzenesulfonamide] yielded a Ki (hCA II) of 10 nM, a Ki (hCA IX [4]) of 8.4 nM and a Ki (hCA XII) of 8.5 nM.
